The text below walks through data of patent US6710049B2, “Azole compounds as anti-fungal agents” (Ranbaxy Laboratories Limited, priority 2000, dated 2004).

Converted amounts (≈) assume the structure as drawn.

The test system of series [1] is All Candida isolates. In words: Comparative in vitro MIC, isolate panel. It is filed as cell-based. The text has this: (§1) The in-vitro evaluation of the antifungal activity of the compounds can be performed by determining the minimum inhibitory concentration (MIC) as shown in Table 1 which is the concentration of the test compound in Rosewell Park Memorial Institute (RPMI) 1640 liquid medium buffered with 3-(Morpholino)propanesulphonic acid (MOPS) to pH 7, at which there is significant inhibition of the particular fungi. In practice the National Committee for Clinical Laboratory Standard (NCCLS) M27A document for Candida and Cryptococcus and M38P for Aspergillus was used to determine the MIC against yeast and filamentous fungi with suitable modifications for dermatophytes to other filamentous fungi. Three quality control strains were included each time the MIC were determined and readings recorded only when the Quality Control results fell into the acceptable range. After MIC results had been recorded, 100 μl from each of the well showing no growth was spread over Sabouraud Dextrose Agar (SDA) to determine the minimum fungicidal concentration (MFC) as shown in Table 2.
(§2) A comparative in vitro and in vivo biologically activity data of the compound of our invention, 2-{[1R,2R]-2-(2,4-Difluorophenyl)-2-hydroxy-1-methyl-3-(1H-1,2,4-triazole-1-yl)propyl}-4-[(2′,2′,3′,3′-tetrafluoropropoxyphenyl)-3-(2H,4H)-1,2,4-thiotriazolone (Compound No. 3) with 2-[(1R,2R)-2-(2,4-difluorophenyl)-2-hydroxy-1-methyl-3-(1H-1,2,4-triazol-1-yl)propyl]-4-(2′,2′,3′,3′-tetraflouropropoxyphenyl)-3(2H,4H)-1,2,4-triazolone (TAK 187) and standard antifungal pharmaceuticals is given below: […]

For series [2], the system named is All Filamentous isolates. The experiment in a line: Comparative in vitro MIC, isolate panel. It is filed as cell-based.
Excerpt: as §1, §2

In series [3] the test system is All fungal pathogens. In words: Comparative in vitro MIC, isolate panel. It is filed as cell-based.
Excerpt: as §1, §2

In series [4] the test system is Aspergillus fumigatus isolates. In words: Comparative in vitro MIC, isolate panel. It is filed as cell-based.
Excerpt: as §1, §2

Series [5] deals with Fusarium spp. isolates. The experiment in a line: Comparative in vitro MIC, isolate panel. It is filed as cell-based.
Excerpt: as §1, §2

Series [6] deals with Penicillium spp. isolates. In words: Comparative in vitro MIC, isolate panel. It is filed as cell-based.
Excerpt: as §1, §2

Series [7] has as its system Rhizoupus spp. isolates. The experiment in a line: Comparative in vitro MIC, isolate panel. It is filed as cell-based.
Excerpt: as §1, §2

Series [8] relates to T. mentagrophyte. The experiment in a line: Activity against dermatophytes. It is filed as cell-based. Details: unit not given here.
Excerpt: as §1, §2

Series [9] concerns T. rubrum. In words: Activity against dermatophytes. It is filed as cell-based. Also on record: unit not given here.
Excerpt: as §1, §2

The test system of series [10] is Aspergillus fumigatous. In words: In vivo anti-fungal activity, ED50 in systemically infected mice. Also on record: species or system Swiss albino mice. As to conditions: mice infected i.v. with Aspergillus fumigatous, dosing for five days. The protocol: The in-vivo evaluation of the compound can be carried out at a series of dose levels by oral or I. V. injection to mice which are inoculated I.V. with the minimum lethal dose of Candida albicans, Cryptococcus neoformans or Aspergillus fumigatus by the tail vein. Activity is based on the survival of a treated group of mice after the death of an untreated group of mice. For Aspergillus and Cryptococcus infections, target organs were cultured after treatment to document the number of mice cured of the infection for further assessment of activity.
Method: Briefly, Swiss albino mice weighing 20±2 G were injected intravenously (tail vein) with sufficient fungal cells to kill 100% of the untreated animals for Aspergillus fumigatous strain used. In all cases each group comprised of six mice. Five does levels, utilizing doubling dilution range, were employed per determination ranging from 25 to 1.56 mg/kg BW. Dosing was carried out for five days starting after 30 minutes of infection. […] Treated animals were monitored twice daily for 14 days post infection at which time the experiment was terminated and ED50 was calculated.

Series [11] deals with filamentous species of fungi. The experiment in a line: Activity against filamentous fungi (statement in words). It is filed as cell-based.
Excerpt: as §1

The conditions of series [12]: serum drug concentration after several days of treatment 25 to 100 times above the MIC for C. neoformans; cited from earlier work.

As a reminder, the MIC50 is the lowest concentration that inhibits either 50% of growth or 50% of the strains tested, depending on the study. The term MIC90 denotes the lowest concentration that inhibits either 90% of growth or 90% of the strains tested, depending on the study. For `C[C@@H](n1ncn(-c2ccc(OCC(F)(F)C(F)F)cc2)c1=S)[C@](O)(Cn1cncn1)c1ccc(F)cc1F` [Compound No. 3], the MIC50 in series [1] worked out at 0.5 µg/mL (≈ 0.895 µM); in [2], 0.25 µg/mL (≈ 0.448 µM); in [3], 0.25 µg/mL (≈ 0.448 µM); in [4], 0.125 µg/mL (≈ 0.224 µM); in [5], 8 µg/mL (≈ 14.3 µM); in [6] it was 2 µg/mL (≈ 3.58 µM). Moreover, in series [7], the MIC50 amounted to 0.125 µg/mL (≈ 0.224 µM). Besides, the MIC90 in series [1] came to 1 µg/mL (≈ 1.79 µM); in [2], 8 µg/mL (≈ 14.3 µM); in series [3], 2 µg/mL (≈ 3.58 µM); in series [4], 0.25 µg/mL (≈ 0.448 µM); in [5] it was 8 µg/mL (≈ 14.3 µM); in series [6], 8 µg/mL (≈ 14.3 µM). The MIC90 in series [7] amounted to 0.125 µg/mL (≈ 0.224 µM). Besides, the “MIC G.M.” value in series [1] is 0.1 µg/mL (≈ 0.179 µM); in [2], 0.328 µg/mL (≈ 0.587 µM); in series [3], 0.285 µg/mL (≈ 0.51 µM); in series [4] it was 0.112 µg/mL (≈ 0.201 µM); in series [5] it was 8 µg/mL (≈ 14.3 µM); in series [6], 1.516 µg/mL (≈ 2.71 µM). Also, the “MIC G.M.” value in series [7] was 0.125 µg/mL (≈ 0.224 µM). Further, the Activity against dermatophytes in series [8] is given as 0.016; in series [9], 0.004. Also, the ED50 in series [10] (Day 7 post infection) came out at 2.33 mg/kg body weight; in [10] (Day 14 post infection) it was 6.25 mg/kg body weight. The “activity against clinically important filamentous species of fungi” value in series [11] was “unexpectedly potent activity”. The fungicidal character result in series [11] (b38: against some filamentous fungi) is on record as “fungicidal”.
For `CC[C@@H]([C@H](C)O)n1ncn(-c2ccc(N3CCN(c4ccc(OC[C@@H]5CO[C@@](Cn6cncn6)(c6ccc(F)cc6F)C5)cc4)CC3)cc2)c1=O` [SCH 56592], the “detectability in CSF” value in series [12] is “undetectable”.
Turning to `CN(C/C=C/C#CC(C)(C)C)Cc1cccc2ccccc12` [Terbina], the results for the Activity against dermatophytes in [8] and in series [9] were 0.002 and 0.016, respectively.
